From PubChem BioAssay (NCI)
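All cell lines were grown in 96-well plates and treated with compound for 48 hours. The concentration for full growth arrest is given as TGI.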

What was measured:
Experiment in all cases: growth of human tumour cells (NCI), 48 h
MDA-N = test system: MDA-N
HCC-2998 colon = test system: HCC-2998 colon
BT-549 breast = test system: BT-549 breast
CCRF-CEM leukemia = test system: CCRF-CEM leukemia
COLO 205 colon = test system: COLO 205 colon
NCI-H226 lung = test system: NCI-H226 lung
UO-31 renal = test system: UO-31 renal
SK-OV-3 ovarian = test system: SK-OV-3 ovarian
SF-539 CNS = test system: SF-539 CNS
SF-268 CNS = test system: SF-268 CNS

Row | Compound | TGI (MDA-N) [µM] | TGI (HCC-2998 colon) [µM] | TGI (BT-549 breast) [µM] | TGI (CCRF-CEM leukemia) [µM] | TGI (COLO 205 colon) [µM] | TGI (NCI-H226 lung) [µM] | TGI (UO-31 renal) [µM] | TGI (SK-OV-3 ovarian) [µM] | TGI (SF-539 CNS) [µM] | TGI (SF-268 CNS) [µM]
1 | O=C1C2CC=CCC2C(=O)N1n1c(Cc2ccccc2)n[nH]c1=O (stereo not given) | > 100 | > 100 | > 100 | > 100 | > 100 | > 100 | > 100 | > 100 | > 100 | > 100
2 | Nc1ccc(OCCCc2c(-c3ccccc3)nc(N)[nH]c2=O)cc1 | > 100 | > 100 | > 100 | > 100 | > 100 | > 100 | > 100 | > 100 | > 100 | > 100
3 | Cc1cc(=O)c2ccccc2n1CCCCCCCCCCn1c(C)cc(=O)c2ccccc21 | 43.1 | 24.1 | 23 | 26.7 | 51.9 | 46.1 | 25.6 | 35.3 | 44.3 | 89.4
